Experimental data taken from publication doi:10.1101/2024.10.01.616164v1 (biorxiv, 2024).
Where a name gives a salt, the structure may show the parent alone.

Assays:
LON-1 [1] = biological target: T1, LON-1 (Caenorhabditis elegans, UniProt Q09566); assay: microscale thermophoresis; format: binding
T1 sequence (Q09566 24-312): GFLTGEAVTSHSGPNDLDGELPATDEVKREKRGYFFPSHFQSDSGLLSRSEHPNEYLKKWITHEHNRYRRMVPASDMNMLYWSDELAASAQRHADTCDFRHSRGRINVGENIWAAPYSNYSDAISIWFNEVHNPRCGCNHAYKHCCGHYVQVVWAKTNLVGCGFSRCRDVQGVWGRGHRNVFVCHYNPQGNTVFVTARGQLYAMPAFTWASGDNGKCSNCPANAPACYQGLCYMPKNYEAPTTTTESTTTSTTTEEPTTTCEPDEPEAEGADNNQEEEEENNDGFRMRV

LON-1 [2] = biological target: LON-1 (Caenorhabditis elegans, UniProt Q09566, V175A); assay: biochemical
LON-1 [3] = biological target: LON-1 (Caenorhabditis elegans, UniProt Q09566, C207S); assay: biochemical
LON-1 [4] = biological target: LON-1 (Caenorhabditis elegans, UniProt Q09566, C185Y); assay: biochemical
LON-1 [5] = biological target: LON-1 (Caenorhabditis elegans, UniProt Q09566, E153A); assay: biochemical
Sequence of LON-1 (Caenorhabditis elegans, UniProt Q09566, E153A) (Q09566 24-312 E153A): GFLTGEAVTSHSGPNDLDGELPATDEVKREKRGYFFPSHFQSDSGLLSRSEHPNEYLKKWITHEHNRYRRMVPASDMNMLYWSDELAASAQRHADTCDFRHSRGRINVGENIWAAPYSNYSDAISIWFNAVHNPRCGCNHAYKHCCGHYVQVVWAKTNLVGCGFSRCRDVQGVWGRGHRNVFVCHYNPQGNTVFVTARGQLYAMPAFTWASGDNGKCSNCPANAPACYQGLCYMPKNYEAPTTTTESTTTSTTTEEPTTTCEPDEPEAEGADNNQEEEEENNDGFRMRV

Sequence of LON-1 (Caenorhabditis elegans, UniProt Q09566, V175A) (Q09566 24-312 V175A): as the sequence (Q09566 24-312 E153A) above, with A130E, V152A counted along it
Sequence of LON-1 (Caenorhabditis elegans, UniProt Q09566, C207S) (Q09566 24-312 C207S): as the sequence (Q09566 24-312 E153A) above, with A130E, C184S counted along it
Sequence of LON-1 (Caenorhabditis elegans, UniProt Q09566, C185Y) (Q09566 24-312 C185Y): as the sequence (Q09566 24-312 E153A) above, with A130E, C162Y counted along it

SMILES	Kd (LON-1 [1]) [µM]	Kd (LON-1 [2]) [µM]	Kd (LON-1 [3]) [µM]	Kd (LON-1 [4]) [µM]	Kd (LON-1 [5]) [µM]
CC(C)CCC[C@@H](C)[C@H]1CC[C@H]2[C@@H]3CC=C4C[C@@H](OS(=O)(=O)O)CC[C@]4(C)[C@H]3CC[C@]12C [cholesterol sulfate]	~19	76 ± 24	332 ± 145	261 ± 92	26 ± 8
CCCCCCCCCCCCCCCC(=O)O [palmitic acid]	~430				
